Results published in patent publication US8647824B2, “Microbial reductive dehalogenation of vinyl chloride” (The Board of Trustees of the Leland Stanford Junior …, priority 2004, dated 2014).
“And” between values parts separate entries of the source, which are not always exact repeats. Equal entries are not always repeated.

Experiments:
[1] = tested on: VC reductive dehalogenase of Dehalococcoides sp. strain VS; assay: VC-reduction enzyme assay with Ti(III)-reduced methyl viologen as electron donor, gas chromatography; format: biochemical
Description: Enzyme assays. Cells were harvested by centrifugation (20,000 g, 20 min, 4° C.) under strictly anoxic conditions using the anoxic chamber, washed and resuspended in degassed MOPS buffer (20 mM, pH 7.2) supplemented with 2 mM DTE and 0.2 mM titanium(III)NTA (buffer A). The buffer was incubated overnight in the anoxic chamber before addition of reducing agents. Cell-free extracts were obtained by anoxic disruption of cells by French Press treatment (138 MPa; two passages), followed by two centrifugation steps (30,000×g, 15 min, 4° C.).
Assays of VC-reduction were conducted as described previously in 2-ml glass vials under an N2/H2 atmosphere with Ti(III)-reduced methyl viologen as artificial electron donor (Rosner et al.) The protein concentration in the assay varied between 10 and 100 μg/ml. The test was started by addition of gaseous VC to the assay mix (total aqueous volume 0.3 ml), and change in VC and ethene concentrations were followed with time by gas chromatography. Experiments testing for reduction of liquid chlorinated ethenes (PCE, TCE, DCE-isomers) were carried out essentially as described above with the appropriate substitution of the chlorinated ethene. The chlorinated compounds were added from aqueous stock solutions.
Oxygen sensitivity of VC-reducing activity in cell-free extract was investigated in buffer amended with resazurin as redox indicator. Prior to addition of VC, the assay was exposed to air until the resazurin underwent a color-change from colorless to pink. Subsequently, the assay was rendered anoxic again by exchanging the gas phase inside the anoxic chamber followed by addition of Ti(III)NTA (5 mM final concentration). All enzyme assays were carried out at ambient temperature, and given activities are means of at least three independent measurements.
Partial purification of VC reductase. Protein purification was performed at 4° C. in the anoxic chamber. The membrane fraction was obtained by centrifugation of cell-free extract at 100,000×g for 90 min at 4° C. The pellet was resuspended in 1 ml buffer A supplemented with 2 mM 3-[(3-cholamidopropyl)dimethylammonio]-1-propanesulfonic acid (CHAPS), and incubated for 1 h on ice. After subsequent centrifugation (100,000×g, 90 min, 4° C.) the solubilized membrane fraction was diluted with an equal volume of buffer B (50 mM 1,3-Bis[tris(hydroxymethyl)methylamino]propane (Bis-Tris Propane), pH 9.6, 2 mM dithiothreitol, 0.2 mM titanium(III)NTA, 20 mM CHAPS), and loaded on a 1-ml HighTrap Q column (Amersham Pharmacia) equilibrated with buffer C (same as buffer B but with 2 mM CHAPS). VC reductive dehalogenase activity was eluted as a single peak (at 550 to 580 mM NaCl) with 10 ml buffer C followed by a 40-ml linear gradient from 0-700 mM NaCl in buffer C at a flow of 1 ml/min. Fractions containing the highest activity were pooled and mixed with an equal volume of buffer A containing 20 mM CHAPS, and applied to a Superose-6 column equilibrated with the same buffer. Enzyme activity was eluted with buffer A at a flow rate of 0.2 ml/min. The protein concentration of the samples was determined according to Bradford with bovine serum albumin as a standard.

KB-1/VC culture = assay: Batch dechlorination and growth kinetics, KB-1/VC culture; format: cell-based, Dehalococcoides-like microorganisms; settings: for Maximum Growth Rate: 95% confidence interval
Text: (§1) Stock cultures. The Victoria mixed culture, containing strain VS, was maintained in a closed continuously stirred tank reactor (CSTR) as previously described. A VC enrichment of this culture, maintained over 5 years, was also used in these investigations. Liquid cultures of the three other cultures evaluated (Pinellas, KB-1/VC, and Dehalococcoides ethenogenes strain 195) were kept in anaerobic bottles, stored in an anaerobic chamber (10% H2, 10% CO2, 80% N2). The bottles were amended with TCE (1-3 μL neat liquid), VC (250 μL gas), and PCE (1-3 μL neat liquid) being added to each, respectively, approximately every two weeks.
(§2) Batch studies. For the experimental portion of this research, two studies were undertaken, one a comparative VC growth study, and the other a comparative growth and substrate utilization study with different chlorinated ethenes. These studies compared the dechlorination abilities of Dehalococcoides ethenogenes strain 195 and the Dehalococcoides-like microorganisms in the three mixed cultures (Victoria, KB-1/VC, and Pinellas).
(§3) For the first study, a VC enriched inoculum was first developed for each of the three mixed cultures. Here, bottles (120 mL) were filled with 60 mL of anaerobic media in an anaerobic chamber as previously described, and inoculated with 200 μL of each stock culture. Gaseous VC (99.5%) was added with a gas tight syringe (200 μL). The cultures were then moved to a shaker (60-80 rpm) in an anaerobic chamber (20±2° C.). Immediately after 5 μmol of ethene was formed in a bottle, 200 μL of the culture was transferred to fresh media (60 mL), in triplicate, and VC was again added (200 μL). The inoculum for the growth study was that formed after exactly 4 μmol of ethene was produced following this second transfer. To compare growth rates on VC, a range in concentration of each inocula (0.1, 0.3, 1, 3, 9 mL) was transferred to fresh media (as above) to result in a liquid volume of 60 mL, and gaseous VC (200 μL) was added to each. […] Hydrogen served as the electron donor and was non-limiting (>3%) in all studies. Headspace samples were periodically removed by syringe (250 μL) for chlorinated ethene analyses.
(§4) The purpose of the second study was to compare dechlorination rates of PCE, TCE and DCE between the three different cultures that grew on VC (Victoria, KB-1/VC and Pinellas). The development of inocula here was performed with VC, just as in the first study. For the growth and substrate utilization experiments, triplicate bottles were set up for each culture containing 1 mL of inoculum and either neat PCE (0.4 μL), neat TCE (0.3 μL), saturated DCE solution (34 μL) or gaseous VC (200 μL). To further investigate TCE removal, bottles (120 mL) were filled with 20 mL of a highly enriched culture of strain VS made from the Victoria culture. Duplicate bottles were supplied with gaseous VC (50 μL on day 0, then 150 μL on day 3) or TCE (0.4 μL neat liquid). Dechlorination was followed until all VC or TCE was converted to ethene (day 12). The change in strain VS concentration during VC and TCE utilization was then determined both by competitive PCR and by an activity procedure evaluated previously for strain VS. In the activity procedure a non-growth limiting concentration of VC (150 μL) along with excess hydrogen is added to a culture and the initial dechlorination rate is measured (over <1 day). A good estimate of strain VS concentration can then be obtained using the previously determined strain VS maximum VC utilization rate (7.8×10^−10 μmol Cl^− (cell·d)^−1). The increase in strain VS concentration during TCE or VC utilization was determined with these two procedures on the culture before and after TCE and VC utilization.
(§5) Comparative dechlorination and growth kinetics. With mixed cultures, the concentration of organisms carrying out a particular reaction is generally unknown and difficult to determine. […]

Pinellas culture = assay: Batch dechlorination and growth kinetics, Pinellas culture; format: cell-based, Dehalococcoides-like microorganisms; settings: for Maximum Growth Rate: 95% confidence interval
Text: as §1, §2, §3, §4, §5

| SMILES | rate of reduction by active protein fractions ([1]; fractions after gel filtration, reduced methyl viologen as electron donor) | Maximum Growth Rate (KB-1/VC culture) | time to form 5 μmol of ethene (KB-1/VC culture; 200 μL VC) | Maximum Growth Rate (Pinellas culture) | time to form 5 μmol of ethene (Pinellas culture; 200 μL VC) | reduction rate relative to reduction rate for cDCE to VC ([1]; reduction of TCE to cDCE) | effect on the reduction rate of VC ([1]; saturating concentrations of PCE or TCE present) | Half velocity coefficient KT (KB-1/VC culture) | Half velocity coefficient KT (Pinellas culture) |
| --- | --- | --- | --- | --- | --- | --- | --- | --- | --- |
| C=CCl [VC, vinyl chloride] | 350 nmol min^−1 [mg protein]^−1 | 0.42 day⁻¹ and 0.42 ± 0.03 day⁻¹ | 18 days | 0.28 day⁻¹ and 0.28 ± 0.01 day⁻¹ | 21 days | – | – | – | – |
| ClC=C(Cl)Cl [TCE, trichloroethene] | – | 0.33 ± 0.06 day⁻¹ | – | 0.49 day⁻¹ and 0.49 ± 0.03 day⁻¹ | – | 5% | not affected | 10.0 ± 2.0 µM | 10.5 ± 0.7 µM |
